According to patent publication US5872138A, “Thrombin inhibitors” (Merck & Co., Inc., priority 1997, dated 1999):
Counter-ions that a name gives are not always drawn.

These compounds were tested against T1, human a-thrombin (Homo sapiens, UniProt P00734) (assay: In vitro assay for determining proteinase inhibition (thrombin Ki)). Conditions: Table 2; 25° C., pH 7.4; read-out: Ki (thr).
T1 construct: human a-thrombin
Assay type: biochemical
Protocol: In vitro assay for determining proteinase inhibition Assays of human a-thrombin and human trypsin were performed at 25° C. in 0.05M TRIS buffer pH 7.4, 0.15M NaCl, 0.1% PEG. Trypsin assays also contained 1 mM CaCl2. In assays wherein rates of hydrolysis of a p-nitroanilide (pna) substrate were determined, a Thermomax 96-well plate reader was used to measure (at 405 nm) the time dependent appearance of p-nitroaniline. […] Activity assays were performed by diluting a stock solution of substrate at least tenfold to a final concentration 0.5 Km into a solution containing enzyme or enzyme equilibrated with inhibitor. Times required to achieve equilibration between enzyme and inhibitor were determined in control experiments. Initial velocities of product formation in the absence (Vo) or presence of inhibitor (Vi) were measured. Assuming competitive inhibition, and that unity is negligible compared Km /[S], […] (where [S], [I], and e respectively represent the total concentrations, of substrate, inhibitor and enzyme), the equilibrium constant (Ki) for dissociation of the inhibitor from the enzyme can be obtained from the dependence of Vo /Vi on [I] shown in equation 1.

Compound | Ki
c1cc(NCc2ccc(OC(C3CCCCC3)C3CC3)cc2)ccn1 (stereo not drawn) | 100 to 1000 nM
c1ccc(CSc2ccc(CNc3ccncc3)cc2)cc1 | > 1000 nM
c1cc(NCc2ccc(NCC3CCCCC3)cc2)ccn1 | > 1000 nM
c1cc(NCc2ccc(OCC(C3CCCCC3)C3CCCCC3)cc2)ccn1 | > 1000 nM
c1ccc(CNc2ccc(CNc3ccncc3)cc2)cc1 | > 1000 nM
COC(=O)C(Oc1ccc(CNc2ccncc2)cc1)c1ccccc1 (stereo not drawn) | > 1000 nM
NC(=O)C(Oc1ccc(CNc2ccncc2)cc1)c1ccccc1 (stereo not drawn) | > 1000 nM
c1ccc(C(Oc2ccc(CNc3ccncc3)cc2)C2CCCCC2)cc1 (stereo not drawn) | > 1000 nM
c1cc(NCc2ccc(OCCCCC3CCCCC3)cc2)ccn1 | > 1000 nM
CC(C)C(Oc1ccc(CNc2ccncc2)cc1)c1ccc2c(c1)OCO2 (stereo not drawn) | > 1000 nM
CCC(Oc1ccc(CNc2ccncc2)cc1)c1ccccc1 (stereo not drawn) | > 1000 nM
CC(Oc1ccc(CNc2ccncc2)cc1)c1ccccc1 (stereo not drawn) | > 1000 nM
c1ccc(CC(Cc2ccccc2)Oc2ccc(CNc3ccncc3)cc2)cc1 [4-[4-(1,3-diphenyl-2-propoxy)benzylamino]pyridine] | > 1000 nM
c1ccc(C(COc2ccc(CNc3ccncc3)cc2)c2ccccc2)cc1 [4-[4-(2,2-diphenylethoxy)benzylamino]pyridine] | > 1000 nM
c1cc(NCc2ccc(OCCC3CCCCC3)cc2)ccn1 [4-[4-(2-cyclohexylethoxy)benzylamino]pyridine] | > 1000 nM
CC(C)C(Oc1ccc(CNc2ccncc2)cc1)c1ccccc1 (stereo not drawn) [4-[4-(2-methyl-1-phenylpropoxy)benzylamino]pyridine] | > 1000 nM
c1cc(NCc2ccc(OCc3ccc4c(c3)OCO4)cc2)ccn1 [4-[4-(3,4-methylenedioxybenzyloxy)benzylamino]pyridine] | > 1000 nM
c1cc(NCc2ccc(OC(C3CCCCC3)C3CCCCC3)cc2)ccn1 [4-[4-(dicyclohexylmethoxy)-benzylamino]pyridine] | > 1000 nM
c1ccc(C(Oc2ccc(CNc3ccncc3)cc2)c2ccccc2)cc1 [N-4-(1,1-diphenylmethoxy)benzylaminopyridine] | > 1000 nM
c1ccc(COc2ccc(CNc3ccncc3)cc2)cc1 [N-4-(4-benzyloxybenzyl)aminopyridine] | > 1000 nM
c1cc(NCc2ccc(OCC3CCCCC3)cc2)ccn1 [N-4-(cyclohexylmethoxy)benzylaminopyridine] | > 1000 nM

Same assay, conditions: Table 3; 25° C., pH 7.4; read-out: Ki(th)

Compound | Ki
OCCc1cc(CNc2ccncc2)ccc1OCC1CCCCC1 | 4400 nM
c1cc(NCc2ccc(OCC3CCCCC3)c(C3CC3)c2)ccn1 | 3200 nM
CCCc1cc(CNc2ccncc2)ccc1OC(c1ccccc1)C1CC1 (stereo not drawn) | 800 nM
CC(C)Cc1cc(CNc2ccncc2)ccc1OCC1CCCCC1 | 1500 nM
CCCc1cc(CNc2ccncc2)ccc1OC(Cc1ccccc1)C1CC1 (stereo not drawn) | 1300 nM
C=Cc1cc(CNc2ccncc2)ccc1OCC1CCCCC1 | 260 nM
c1ccc(-c2cc(OCC3CCCCC3)ccc2CNc2ccncc2)cc1 | 6400 nM
CCCc1cc(CNc2ccncc2)cc(CO)c1OCC1CCCCC1 | 3800 nM
CCCc1cc(CNc2ccncc2)ccc1OCC12CC3CC(CC(C3)C1)C2 | 220 nM
CCCc1cc(CNc2ccncc2)ccc1OCC1CCCCCC1 | 740 nM
COc1cc(OCC2CCCCC2)ccc1CNc1ccncc1 | 3200 nM
CCCc1cc(CNc2ccncc2)ccc1OC(Cc1ccccc1)C(C)C (stereo not drawn) | 500 nM
CCCc1cc(CNc2ccncc2)c(Cc2ccccc2)cc1OCC1CCCCC1 | > 900 nM
Oc1cc(OCC2CCCCC2)ccc1CNc1ccncc1 | 1600 nM
CCCc1cc(CNc2ccncc2)ccc1OC(c1ccccc1)c1ccccc1 | 320 nM
CCCc1cc(CNc2ccncc2)ccc1OCc1ccc(OC)cc1 | 1800 nM
CCCc1cc(CNc2ccncc2)ccc1OCc1ccccc1 | 1800 nM
c1ccc(Cc2cc(OCC3CCCCC3)ccc2CNc2ccncc2)cc1 [4'-(4-cyclohexylmethyloxy-2-benzylphenylmethyl)-aminopyridine] | 1800 nM
c1ccc(COc2cc(OCC3CCCCC3)ccc2CNc2ccncc2)cc1 [4-(4-cyclohexylmethyloxy-2-benzyloxybenzyl)aminopyridine] | 1800 nM
Nc1cc(CNc2ccncc2)ccc1OCC1CCCCC1 [4-{[3-amino-4-(cyclohexylmethyloxy)phenyl]methylamino}pyridine dihydrochloride] | 2900 nM
CCc1cc(CNc2ccncc2)ccc1OCC1CCCCC1 [4-{[3-ethyl-4-(cyclohexylmethyloxy)phenyl]methylamino}pyridine] | 640 nM
CCCc1cc(CNc2ccncc2)ccc1OCC1CCCCC1 [4-{[3-propyl-4-(cyclohexylmethyloxy)phenyl]methylamino}pyridine] | 500 nM
CC(C)CCc1cc(CNc2ccncc2)ccc1OCC1CCCCC1 [drawing 160] | 3200 nM

Same assay, conditions: Table 4; 25° C., pH 7.4; read-out: Ki (thr)

Compound | Ki
c1ccc(-c2cc(CNc3ccncc3)ccc2OCC2CCCCC2)cc1 | > 10000 nM
OCc1cc(CNc2ccncc2)ccc1OCC1CCCCC1 | > 10000 nM
NCc1cc(CNc2ccncc2)ccc1OCC1CCCCC1 | > 10000 nM
CNCc1cc(CNc2ccncc2)ccc1OCC1CCCCC1 | 1000 to 10000 nM
CNC(=O)c1cc(CNc2ccncc2)ccc1OCC1CCCCC1 | > 10000 nM
CC(C)(C)OCCc1cc(CNc2ccncc2)ccc1OCC1CCCCC1 | > 10000 nM
CCCc1cc(CNc2ccncc2)cc(CN2CCCCC2)c1OCC1CCCCC1 | 1000 to 10000 nM
CCCc1cc(CN(CC)c2ccncc2)ccc1OCC1CCCCC1 | > 10000 nM
CCCc1cc(CNc2ccncc2C)ccc1OCC1CCCCC1 | 1000 to 10000 nM
CCCc1cc(CNc2ccncc2)ccc1OCC1CC2C=CC1C2 (stereo not drawn) | 100 to 1000 nM
CCCc1cc(CNc2ccncc2)ccc1OCc1cccc2ccccc12 | 1000 to 10000 nM
CC(C)CCc1cc(CNc2ccncc2)ccc1OCC1CCCCC1 [drawing 174] | 1000 to 10000 nM
CCCc1cc(CNc2ccncc2)ccc1OCCC(C)C [i-butyl] | 1000 to 10000 nM

Same assay, conditions: Table 5; 25° C., pH 7.4; read-out: Ki(thr)

Compound | Ki
N=C(N)N1CCN(S(=O)(=O)c2ccc(OCc3ccccc3)cc2)CC1 [N-((4-benzyloxy)phenylsulfonyl)-N'-aminomethyliminopiperazine] | 1000 to 10000 nM
CCc1cc(S(=O)(=O)N2CCN(C(=N)N)CC2)ccc1OCC1CCCCC1 [N-((4-cyclohexylmethyloxy)-3-ethyl-phenylsulfonyl)-N'-aminomethyliminopiperazine] | 100 to 1000 nM

Same assay, conditions: Table 6; 25° C., pH 7.4; read-out: Ki(thr)

Compound | Ki
CCCc1cc(Cc2ccc(C(=N)N)cc2)ccc1OCC1CCCCC1 | 300 nM
CCCc1cc(Cc2ccc(C(=N)N)cc2)ccc1OC(C(C)C)C1CCCCC1 (stereo not drawn) | 280 nM
Cc1cc(Cc2ccc(C(=N)N)cc2)ccc1OCC1CCCCC1 | 102 nM
CCc1cc(Cc2ccc(C(=N)N)cc2)ccc1OCC1CCCCC1 | 77 nM
Cc1cc(Cc2ccc(C(=N)N)cc2)ccc1OC(C(C)C)C1CCCCC1 (stereo not drawn) | 20 nM
CCc1cc(Cc2ccc(C(=N)N)cc2)ccc1OC(C(C)C)C1CCCCC1 (stereo not drawn) | 20 nM
N=C(N)c1ccc(Cc2ccc(OCC3CCCCC3)cc2)cc1 [4-{[4-(Cyclohexylmethyloxy)phenyl]methyl}-benzamidine hydrochloride] | 170 nM
N=C(N)c1ccc(Cc2ccc(OCc3ccccc3)cc2)cc1 [4-{[4-(Phenylmethyloxy)phenyl]methyl}benzamidine hydrochloride] | 390 nM

Same assay, conditions: Table 7; 25° C., pH 7.4; read-out: Ki(thr)

Compound | Ki
c1cc(NCc2ccc(CCC3CCCCC3)cc2)ccn1 | 1000 to 10000 nM
c1ccc(OCc2ccc(CNc3ccncc3)cc2)cc1 | 1000 to 10000 nM

Same assay, conditions: Table I; 25° C., pH 7.4; read-out: Ki (thr)

Compound | Ki
Nc1cc[n+](Cc2ccc(OCc3ccccc3)cc2)cc1 | 100 to 1000 nM
Nc1cc[n+](Cc2ccc(-c3ccccc3)cc2)cc1 | > 1000 nM
Nc1cc[n+](Cc2ccc(OCc3ccccc3)nc2)cc1 | > 1000 nM
Nc1cc[n+](Cc2ccc(OCc3ccccc3)cn2)cc1 | > 1000 nM
COc1cc(C[n+]2ccc(N)cc2)ccc1OCc1ccccc1 | > 1000 nM
Nc1cc[n+](Cc2ccc(OCc3ccccc3)c(OCc3ccccc3)c2)cc1 | > 1000 nM
4-amino-1-(4-(1-phenyl-1-carbomethoxy)methoxybenzyl)pyridinium bromide | 100 to 1000 nM
Nc1cc[n+](Cc2ccc(OC(c3ccccc3)c3ccccc3)cc2)cc1 [4-amino-1-(4-(1,1-diphenylmethoxy)benzylpyridinium bromide] | < 100 nM
Nc1cc[n+](Cc2ccc(OCC(C3CCCCC3)C3CCCCC3)cc2)cc1 [4-amino-1-(4-(2,2-dicyclohexyl-1-ethoxy)benzyl)pyridinium bromide] | 100 to 1000 nM
Nc1cc[n+](Cc2ccc(OC(CCc3ccccc3)c3ccccc3)cc2)cc1 (stereo not drawn) [4-amino-1-[4-(1,3-diphenyl-1-propoxy)benzyl]pyridinium bromide] | 100 to 1000 nM
Nc1cc[n+](Cc2ccc(OCC(c3ccccc3)c3ccccc3)cc2)cc1 [4-amino-1-[4-(2,2-diphenylethoxy)benzyl]pyridinium bromide] | 100 to 1000 nM
Nc1cc[n+](Cc2ccc(OC(C3CCCCC3)C3CCCCC3)cc2)cc1 [4-amino-1-[4-(dicyclohexylmethoxy)benzyl]pyridinium bromide] | 100 to 1000 nM
